Here are results for 1 compound from patent publication US20090143416A1, “Method of Inducing Tolerance of Plants Against Bacterioses” (priority 2006, published 2009).

Structures are written as SMILES.

For one assay, the system named is Erwinia carotovora. The experiment in a line: Preventive action on potatoes against Erwinia carotovora (field trial). Type of assay: in vivo. The note with it: under the trial conditions (potato field trial); assumed, not tested alone. An excerpt:
(§1) The visually determined percentages of infected leaf areas were converted into efficacies in % of the untreated control:
(§2) An efficacy of 0 means that the infection level of the treated plants corresponds to that of the untreated control plants; an efficacy of 100 means that the treated plants were not infected.

Another assay relates to Xathomonas ssp. Put plainly: Preventive action on tomatoes against Xathomonas ssp (field trial). The note with it: under the trial conditions (tomato field trial); assumed, not tested alone. Type of assay: in vivo. On the procedure:
The active compounds used were applied as commercially available formulations.
as §1
The efficacy (E) is calculated as follows using Abbot's formula: […]
α corresponds to the fungal infection of the treated plants in % and β corresponds to the fungal infection of the untreated (control) plants in %
as §2
The trial was conducted under field conditions. Tomato plants of variety Carmen at a height of app. 10 cm were planted and grown under standard conditions with adequate supply of water and nutrients. After 18 days a first application of active compounds was made, which was repeated five times every 5 to 8 days. No other compounds were applied for pathogen control. Infection with pathogens occurred. Each treatment consisted of four replicants in a randomized block design. The disease incidences were evaluated 46 days after the first application (Xathomonas ssp.).

As for `[Cl-].[Cu+2].[Cu+2].[OH-].[OH-].[OH-]` [copper, copper oxychloride], the “efficacy against Erwinia carotovora” value with Erwinia carotovora is “very close to zero”. For the same compound, the “efficacy against Xathomonas” value with Xathomonas ssp was “very close to zero”.
